Results published in PubChem BioAssay AID2060333 (Molecular Pharmacology Branch, DTP, NCI, 2025).
pIC50: −log10 of the molar value. Where “and” joins values, the source holds several entries; their conditions need not be identical. Equal entries are not always repeated.

System: 845751-090-R-J2-PDC tumor spheroid viability
Assay: Anticancer human tumor 845751-090-R-J2-PDC patient-derived head and neck squamous carcinoma cell line growth inhibition [IpAb]
Settings: spheroids with HUVEC and MSC; for viability, T/C: stronger effect = lower value
Excerpt: Combinatorial screen of targeted agents with ipatasertib and abemaciclib in multi-cell type tumor spheroids
A high-throughput screen of multi-cell type tumor spheroids was designed to identify active combinations of targeted small molecules and ipatasertib or abemaciclib. Complex spheroids include a stromal component modeled by human endothelial cells (HUVEC) and fibroblasts modeled by human mesenchymal stem cells (MSCs). The concentration ranges selected for each drug and investigational agent were based upon clinically achievable concentrations if the clinical Cmax of the agent was known.
Compounds. The drugs and investigational agents: ipatasertib (NSC767898), abemaciclib(NSC768073), selumetinib (NSC741078), trametinib (758246), adavosertib (NSC754352), everolimus (NSC733504), sapanisertib (NSC764658), vemurafenib (NSC761431), venetoclax (NSC766270), copanlisib (NSC809693), apelisib (NSC765974), palbociblib (NSC758247), vemurafenib (NSC761431), dabrafenib (NSC764134), ravoxertinib (NSC781343), BMS-387032 (NSC767048), sotorasib (NSC818433), talazoparib (NSC767125) and afursertib (NSC778305), were obtained from the National Cancer Institute (NCI) Developmental Therapeutics Program Chemical Repository. The FDA-approved anticancer drug set is available from the NCI Developmental Therapeutics Program. […] The stock solutions were prepared in dimethyl sulfoxide (DMSO, Sigma-Aldrich, St. Louis, MO, cat. D2650) at 800-fold the tested concentration and stored at -70 degrees C prior to their use. All drugs and investigational agents were tested over a range starting from a high concentration at or near the clinical Cmax and decreasing in half-log increments. If the clinical Cmax for an agent had not been determined, the highest concentration tested was 10 microM.
NCI60 Cell Culture. NCI60 cell lines were obtained from the NCI Developmental Therapeutics Program Tumor Repository. For each lot of cells, the Repository performed Applied Biosystems AmpFLSTR Identifiler testing with PCR amplification to confirm consistency with the published Identifier STR profile for each cell line. Cells were kept in continuous culture for no more than 20 passages. The optimal seeding densities for each of the cell lines at each time point assessed were determined prior to performing the concentration response studies. Briefly, the NCI60 human tumor lines were grown as monolayers in RPMI 1640 medium supplemented with 10% FBS and 2 mmol/L L-glutamine.
An additional 9 lines were from the NCI60 cell line panel including MDA-MB-231 breast carcinoma, MDA-MB-468 breast carcinoma, MCF7 breast carcinoma, Hs578T breast carcinoma, MALME-3M melanoma, SK-MEL-2 melanoma, SK-OV-3 ovarian carcinoma, DU-145 prostate carcinoma, PC-3 prostate carcinoma, all cell lines along with major genetic alterations are listed on Table 2. Pooled donor human umbilical vein endothelial cells (HUVEC, Lonza, cat. CC-2519) and human mesenchymal stem cells (hMSC, Lonza, cat. PT-2501) were purchased from Lonza (Walkersville, MD).
PDMR cell lines were grown in complete medium (DC medium): Dulbecco's modified Eagle's medium (DMEM)/F12 supplemented with 5% fetal bovine serum (FBS), 2 mM L-glutamine, 100 U/mL penicillin and 100 µg/ml streptomycin, 0.4 µg/ml hydrocortisone, 10 ng/ml epidermal growth factor (EGF) recombinant human protein, 24 µg/mL adenine, and 0.1 mg/mL primocin. During culture from frozen stock vials, PDMR cells were cultured in the same medium containing 10 µM Y-27632 (see Table 3). The PDCs were cultured in complete DMEM/F12 media without 10 microM Y-27632 dihydrochloride for at least two passages prior to the screen. The pooled donor HUVEC and hMSC were cultured in endothelial cell growth medium 2 (PromoCell, Heidelberg, Germany, cat. C-22011) and mesenchymal stem cell growth medium 2 (PromoCell, cat. C-28009), respectively. For all experiments, HUVEC and hMSC were used at passages </=5.
[…]

[1] = curve of first compound, second compound 0.01 µM
[2] = curve of first compound, second compound 0.0316 µM
[3] = curve of first compound, second compound 0.1 µM
[4] = curve of first compound, second compound 0.316 µM
[5] = curve of first compound, second compound 1 µM
[6] = second compound 0.01 µM, first compound 0.0316 µM
[7] = second compound 0.01 µM, first compound 0.1 µM
[8] = second compound 0.01 µM, first compound 0.316 µM
[9] = second compound 0.01 µM, first compound 1 µM
[10] = second compound 0.01 µM, first compound 3.16 µM
[11] = second compound 0.01 µM, first compound 10 µM
[12] = second compound 0.0316 µM, first compound 0.0316 µM
[13] = second compound 0.0316 µM, first compound 0.1 µM
[14] = second compound 0.0316 µM, first compound 0.316 µM
[15] = second compound 0.0316 µM, first compound 1 µM
[16] = second compound 0.0316 µM, first compound 3.16 µM
[17] = second compound 0.0316 µM, first compound 10 µM
[18] = second compound 0.1 µM, first compound 0.0316 µM
[19] = second compound 0.1 µM, first compound 0.1 µM
[20] = second compound 0.1 µM, first compound 0.316 µM
[21] = second compound 0.1 µM, first compound 1 µM
[22] = second compound 0.1 µM, first compound 3.16 µM
[23] = second compound 0.1 µM, first compound 10 µM
[24] = second compound 0.316 µM, first compound 0.0316 µM
[25] = second compound 0.316 µM, first compound 0.1 µM
[26] = second compound 0.316 µM, first compound 0.316 µM
[27] = second compound 0.316 µM, first compound 1 µM
[28] = second compound 0.316 µM, first compound 3.16 µM
[29] = second compound 0.316 µM, first compound 10 µM
[30] = second compound 1 µM, first compound 0.0316 µM
[31] = second compound 1 µM, first compound 0.1 µM
[32] = second compound 1 µM, first compound 0.316 µM
[33] = second compound 1 µM, first compound 1 µM
[34] = second compound 1 µM, first compound 3.16 µM
[35] = second compound 1 µM, first compound 10 µM
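Further: spheroids exposed to compounds for 7 days before readout.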
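Wherever viability, T/C is given: CTG3D luminescence normalised so that 100% = DMSO vehicle control.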

SMILES | pIC50 [1] | pIC50 [2] | pIC50 [3] | pIC50 [4] | pIC50 [5] | viability, T/C [6] [%] | viability, T/C [7] [%] | viability, T/C [8] [%] | viability, T/C [9] [%] | viability, T/C [10] [%] | viability, T/C [11] [%] | viability, T/C [12] [%] | viability, T/C [13] [%] | viability, T/C [14] [%] | viability, T/C [15] [%] | viability, T/C [16] [%] | viability, T/C [17] [%] | viability, T/C [18] [%] | viability, T/C [19] [%] | viability, T/C [20] [%] | also measured
CCCS(=O)(=O)Nc1ccc(F)c(C(=O)c2c[nH]c3ncc(-c4ccc(Cl)cc4)cc23)c1F + CCN1CCN(Cc2ccc(Nc3ncc(F)c(-c4cc(F)c5nc(C)n(C(C)C)c5c4)n3)nc2)CC1 | 6.23 | 6.17 | 6.34 | 6.24 | 6.04 | 95 | 70.8 | 52.4 | 50.7 | 35 | 24.7 | 86.4 | 64.9 | 66.6 | 43.4 | 30.9 | 20.5 | 65 | 60.2 | 58.8 | viability, T/C [21]: 30.9%; viability, T/C [22]: 23.2%; viability, T/C [23]: 29.5%; viability, T/C [24]: 74.2%; viability, T/C [25]: 65.7%; viability, T/C [26]: 63.4%; viability, T/C [27]: 38.6%; viability, T/C [28]: 28.6%; viability, T/C [29]: 23%; viability, T/C [30]: 81.5%; viability, T/C [31]: 81.2%; viability, T/C [32]: 70.3%; viability, T/C [33]: 47.4%; viability, T/C [34]: 38.1%; viability, T/C [35]: 32.1%
Cn1ncnc1[C@H]1c2n[nH]c(=O)c3cc(F)cc(c23)N[C@@H]1c1ccc(F)cc1 |  |  |  |  |  |  |  |  |  |  |  |  |  |  |  |  |  |  |  |  | viability, T/C (compound 0.000316 µM): 81.7% and 97.4%; viability, T/C (compound 0.001 µM): 80% and 90.8%; viability, T/C (compound 0.00316 µM): 137% and 113%; viability, T/C (compound 0.01 µM): 105% and 91.3%; viability, T/C (compound 0.0316 µM): 100% and 106%; viability, T/C (compound 0.1 µM): 96.4% and 111%; pIC50 (curve of compound): < 7.00
C=CCn1c(=O)c2cnc(Nc3ccc(N4CCN(C)CC4)cc3)nc2n1-c1cccc(C(C)(C)O)n1 + CCN1CCN(Cc2ccc(Nc3ncc(F)c(-c4cc(F)c5nc(C)n(C(C)C)c5c4)n3)nc2)CC1 | < 5.00 | 5.38 | 5.70 | 5.05 | < 5.00 | 104 | 68.3 | 68.3 | 57.4 | 50.8 | 48.9 | 66.4 | 71.4 | 62.2 | 60.8 | 53.1 | 40.8 | 66.8 | 64.8 | 60.8 | viability, T/C [21]: 47.7%; viability, T/C [22]: 50.5%; viability, T/C [23]: 43.2%; viability, T/C [24]: 59%; viability, T/C [25]: 68.7%; viability, T/C [26]: 69.2%; viability, T/C [27]: 60.3%; viability, T/C [28]: 59.8%; viability, T/C [29]: 49.1%; viability, T/C [30]: 88.9%; viability, T/C [31]: 97.6%; viability, T/C [32]: 83.9%; viability, T/C [33]: 107%; viability, T/C [34]: 95.7%; viability, T/C [35]: 66.7%
